Assay results published in BigSolDB 2.1.

COC(=O)c1nc[nH]n1
Conditions | solubility (mole fraction)
in 2-pentanone, 278.15 K | 0.000862
in 2-pentanone, 283.35 K | 0.000994
in 2-pentanone, 288.05 K | 0.0012
in 2-pentanone, 292.55 K | 0.00136
in 2-pentanone, 297.95 K | 0.00165
in 2-pentanone, 302.65 K | 0.00192
in 2-pentanone, 307.35 K | 0.00222
in 2-pentanone, 313.05 K | 0.00253
in 2-pentanone, 317.35 K | 0.00285
in 3-pentanone, 278.25 K | 0.000784
in 3-pentanone, 283.35 K | 0.000902
in 3-pentanone, 288.05 K | 0.00107
in 3-pentanone, 292.55 K | 0.00127
in 3-pentanone, 298.35 K | 0.00143
in 3-pentanone, 303.05 K | 0.00172
in 3-pentanone, 307.35 K | 0.00191
in 3-pentanone, 312.85 K | 0.00224
in 3-pentanone, 317.15 K | 0.00243
in MIBK, 278.25 K | 0.000526
in MIBK, 283.35 K | 0.000657
in MIBK, 288.05 K | 0.000734
in MIBK, 292.55 K | 0.000852
in MIBK, 298.35 K | 0.00111
in MIBK, 303.05 K | 0.00127
in MIBK, 307.35 K | 0.00148
in MIBK, 312.55 K | 0.00172
in MIBK, 317.05 K | 0.00197
in THF, 278.15 K | 0.00105
in THF, 283.05 K | 0.00137
in THF, 289.05 K | 0.00196
in THF, 293.25 K | 0.00244
in THF, 298.35 K | 0.00323
in THF, 303.05 K | 0.00419
in THF, 307.35 K | 0.00517
in THF, 313.85 K | 0.00714
in THF, 317.95 K | 0.00875
in acetone, 278.15 K | 0.00153
in acetone, 283.35 K | 0.00181
in acetone, 288.05 K | 0.00203
in acetone, 292.55 K | 0.00232
in acetone, 297.95 K | 0.00286
in acetone, 302.65 K | 0.0033
in acetone, 307.35 K | 0.00382
in acetone, 313.25 K | 0.00458
in acetone, 317.55 K | 0.00508
in acetonitrile, 278.65 K | 0.000843
in acetonitrile, 283.45 K | 0.000993
in acetonitrile, 288.25 K | 0.0012
in acetonitrile, 292.85 K | 0.00142
in acetonitrile, 297.05 K | 0.00168
in acetonitrile, 301.85 K | 0.00206
in acetonitrile, 307.35 K | 0.00245
in acetonitrile, 313.25 K | 0.00305
in acetonitrile, 318.95 K | 0.00384
in cyclohexanone, 278.05 K | 0.00557
in cyclohexanone, 282.95 K | 0.00583
in cyclohexanone, 289.05 K | 0.00622
in cyclohexanone, 293.25 K | 0.00657
in cyclohexanone, 298.35 K | 0.00687
in cyclohexanone, 303.05 K | 0.0075
in cyclohexanone, 307.35 K | 0.00814
in cyclohexanone, 313.75 K | 0.00888
in cyclohexanone, 317.85 K | 0.00962
in cyclopentanone, 277.95 K | 0.00156
in cyclopentanone, 282.85 K | 0.0018
in cyclopentanone, 288.95 K | 0.00219
in cyclopentanone, 293.25 K | 0.00251
in cyclopentanone, 298.25 K | 0.00303
in cyclopentanone, 303.05 K | 0.00356
in cyclopentanone, 307.25 K | 0.00417
in cyclopentanone, 313.65 K | 0.0053
in cyclopentanone, 317.65 K | 0.00632
in ethanol, 278.45 K | 0.00142
in ethanol, 283.15 K | 0.0016
in ethanol, 288.05 K | 0.00204
in ethanol, 292.65 K | 0.00254
in ethanol, 297.25 K | 0.00305
in ethanol, 301.65 K | 0.00378
in ethanol, 306.95 K | 0.00464
in ethanol, 312.65 K | 0.00602
in ethanol, 318.05 K | 0.00759
in isobutanol, 278.65 K | 0.00103
in isobutanol, 283.35 K | 0.00116
in isobutanol, 288.25 K | 0.00141
in isobutanol, 292.85 K | 0.00182
in isobutanol, 297.05 K | 0.00222
in isobutanol, 301.85 K | 0.00273
in isobutanol, 307.15 K | 0.00337
in isobutanol, 313.15 K | 0.00439
in isobutanol, 318.65 K | 0.00581
in isopropanol, 278.55 K | 0.000966
in isopropanol, 283.25 K | 0.00119
in isopropanol, 288.15 K | 0.00146
in isopropanol, 292.75 K | 0.00188
in isopropanol, 297.15 K | 0.00235
in isopropanol, 301.75 K | 0.00297
in isopropanol, 307.05 K | 0.00389
in isopropanol, 312.85 K | 0.00511
in isopropanol, 318.35 K | 0.00693
in methanol, 278.45 K | 0.00294
in methanol, 283.15 K | 0.0033
in methanol, 288.05 K | 0.00385
in methanol, 292.65 K | 0.00467
in methanol, 297.25 K | 0.00537
in methanol, 301.65 K | 0.00645
in methanol, 306.95 K | 0.00768
in methanol, 312.55 K | 0.00952
in methanol, 317.85 K | 0.0115
in n-butanol, 278.55 K | 0.00199
in n-butanol, 283.35 K | 0.00217
in n-butanol, 288.15 K | 0.00246
in n-butanol, 292.75 K | 0.00279
in n-butanol, 297.15 K | 0.00326
in n-butanol, 301.75 K | 0.00378
in n-butanol, 307.15 K | 0.00476
in n-butanol, 312.95 K | 0.00613
in n-butanol, 318.45 K | 0.00818
in n-propanol, 278.55 K | 0.00137
in n-propanol, 283.25 K | 0.00153
in n-propanol, 288.15 K | 0.00183
in n-propanol, 292.75 K | 0.00227
in n-propanol, 297.15 K | 0.00264
in n-propanol, 301.75 K | 0.00325
in n-propanol, 307.05 K | 0.00398
in n-propanol, 312.75 K | 0.00532
in n-propanol, 318.15 K | 0.0069
